Experimental data from US5374772A, “Substituted benzoic acids, inhibitors of phospholipases A2” (Hoffmann-LaRoche Inc., priority 1993, dated 1994).

Legend:
[1] = molecular target: T1, HSF-PLA2 (extracellular PLA2 obtained from human synovial fluid) (Homo sapiens, UniProt P14555); test: Assay for Inhibition of HSF-PLA2 In Vitro; format: biochemical; conditions: for IC50: given as 50 % inhibition at the given concentration, 14C-oleate-labelled E. coli substrate, pH 7.3, 37° C., 30 minutes, read-out: % Inhib of HSF-PLA2: 50 (concentration) = IC50 (μM concentration that produces 50% inhibition of PLA2 activity)
T1 construct: extracellular enzyme obtained from human synovial fluid; from tissue; host or cells: pooled human synovial fluid (0.1% v/v in the assay)
T1 sequence (P14555 21-144): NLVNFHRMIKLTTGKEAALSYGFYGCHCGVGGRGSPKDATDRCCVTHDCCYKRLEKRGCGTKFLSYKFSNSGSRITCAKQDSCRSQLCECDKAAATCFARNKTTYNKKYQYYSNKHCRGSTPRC
Description: The PLA2 used in this test is the extracellular enzyme obtained from human synovial fluid (HSF-PLA2). The assay for HSF-PLA2 activity was a modification of the described method [Franson R., Dobrow R., Weiss, J., Elsbach P., and […]. Lipid Res., 19, 18-23 (1978)] which was conducted using [1-^14 C]-oleate-labelled E. coli substrate in excess at a final concentration of 20,000 dpm/ml. This was equivalent to 18.2 mM of cell membrane phospholipid phosphorus and 2×10^9 autoclaved E. coli/ml. The optimal conditions which were developed for the assay of HSF-PLA2 inhibitors are summarized as follows. […] The reaction was terminated by the addition of 2.5 ml of chloroform-methanol (1 to 1.5, v/v). The extraction of lipids from the stopped reaction mixture was conducted by the further additions of 0.5 ml of chloroform and 1 ml of water with mixing. […] The extracted lipid residue was redissolved in […] of a solution containing carrier oleic acid (0.2 mg/ml) of […]]). […] This TLC system rapidly (6 minutes) resolved the enzymatically released product, ^14 C-oleic acid, from the unreacted ^14 C-phospholipid substrate. The unsaturated lipids were located on the chromatogram by a brief exposure to iodine vapor. The oleic acid zone (Rf value 0.95) and phospholipid zone (origin) were cut out, chopped into small pieces, shaken with 2 ml of ethanol-water (80 to 20, v/v) and 15 ml of Aquasol and counted for radioactivity. A control incubation of substrate in the absence of HSF-PLA2 was performed in each experiment. The PLA2 activity of the human synovial fluid was corrected for this small control value. […] The specific activity of PLA2 in the pooled human synovial fluid under the optimal assay conditions was 49.2 nmoles [1-^14 C]-oleic acid released hour^-1 mg^-1. The IC50 (μM concentration of test compound that produces 50% inhibition of PLA2 activity) was determined for each test compound.

[2] = system: croton oil-induced mouse ear edema; test: Croton Oil Mouse Ear Edema Test; format: in vivo, male CD-1 mice; conditions: 1 mg topical, coapplied with croton oil, ear punch weight at 6 hours
Description: The croton oil-induced mouse ear edema test, a model of irritant-induced contact dermatitis, has been used for evaluation of the PLA2 inhibitors by the topical route of administration. This test was carried out as described in the following references:
The major active ingredient in croton oil is the tumor promoter 12-O-tetradecanoylphorbol-13-acetate (TPA) and the topical application of TPA to mouse skin has been reported to cause an increase in epidermal PGE2 production as well as an increase in epidermal cell membrane PLA2 activity. Indomethacin, an inhibitor of prostaglandin synthesis, prevented the TPA-mediated increase in epidermal PGE2 levels as well as the TPA-mediated induction of epidermal cell ornithine decarboxylase. Furthermore, the application of PGE2 to mouse skin countered the inhibitory effect of indomethacin upon TPA-stimulated cellular proliferation.
Twenty five μl of a 1% croton oil solution [dissolved in a mixture of pyridine/water/diethyl ether at a ratio of 5/20/75 (croton oil vehicle)] are applied to the outer side of the right ear of 3-4 week old male CD-1 mice (8 animals per group). The test compounds are dissolved directly in the 1% croton oil solution at various concentrations and coapplied. Control animals receive 25 μl of croton oil vehicle on the right ear. Biopsy punches are removed at 6 hours from the fight ear of the animals using a 6 mm skin trephine (Roboz, Washington, D.C.) and the wet weight of the ear punches is determined. The weight of the biopsy punches is a measure of ear inflammation, primarily edema. The data are expressed as percent inhibition relative to control groups.
Statistical analysis of the mean edema values of the control versus the treated groups is performed using Student's t-test. The significance of changes from the mean value for vehicle-treated (control) animals in the following Tables is indicated as follows: *p<0.05, **p<0.01, ***p<0.005,ns/not significant.

[3] = system: myeloperoxidase in colonic mucosa; test: Acetic Acid-Induced Colitis in Rats; format: in vivo, Male rats (Sprague-Dawley); conditions: 10 mg/kg orally
Excerpt: The rat acetic acid-induced colitis bioassay has been described by J. E. Krawisz, et al. in Amer. J. Proc. Gastro. Col. Rec. Surg. 31:11-18 (1980), and by P. Sharon and W. F. Stenson in Gastroenterology 88, 55-63 (1985) and 86, 453-460 (1984). Acetic acid-induced colitis is characterized by the movement of inflammatory cells into the colon, ,with the number of such cells in the mucosa being measured by the activity of myeloperoxidase, a marker enzyme for these cells. Positive desirable activity is indicated by a reduction in the high levels of myeloperoxidase caused by acetic acid. Male rats (Sprague-Dawley), weighing 150 to 300 g, were pretreated twice daily for two days with either the vehicle (water or dimethylsulfoxide) or the test inhibitor compound suspended in water or dissolved in dimethylsulfoxide and orally administered. […] The colonic mucosa was surgically removed and homogenized in an aqueous buffer at pH 6 with a Tissumizer or similar device and myeloperoxidase was measured in the homogenate using o-phenylenediamine as a chromagen, as described by A. Voller, D. E. Bidwell and A. Bartlett in "The Enzyme Linked Immunosorbent Assay (ELISA)", Zoological Soc., London, 1979, pages 29-30. […]

[4] = system: TPA-induced mouse ear edema; test: TPA Induced Mouse Ear Edema Test (ear punch weight); format: in vivo, male CD-1 mice; conditions: Mus musculus; 0.3 mg topical, 30 minutes prior to TPA, ear punch weight at 6 hours; read-out: % Inhib of TPA Mouse Ear Edema (0.3 mg)
Description: The TPA-induced mouse ear edema test, a model of irritant-induced contact dermatitis is described in the following reference: J. M. Young, B. M. Wagner and […]. Invest. Dermatology 80, 48-52 (1983). For this test, 10 μl of 12-O-tetradecanoylphorbol-13-acetate (TPA), dissolved in a vehicle of pyridine: water: diethyl ether (20:5:75), was applied to the outside of the right ear of 3-4 week old male CD-1 mice (8 animals per group). The test compounds were dissolved in the same vehicle and 10 μl was applied to the inside of the same ear 30 minutes prior to the application of TPA. Ear punches (6 mm) were removed at 6 hours after TPA application, weighed and assayed for myeloperoxidase (MPO) activity as described in the following reference: P. P. Bradley, […]. Christensen and G. Rothstein, J. Invest. Dermatology 78, 206-209 (1982). The wet weight of the ear biopsy punches is a measure of the ear edema and the level of MPO activity in the ear punches is an indicator of neutrophil infiltration. The data are expressed as percent inhibition of drug-[…] relative to the control group.

[5] = system: myeloperoxidase (MPO) activity, indicator of neutrophil infiltration; test: TPA mouse ear test, myeloperoxidase activity in ear punches; format: in vivo, male CD-1 mice; conditions: 0.3 mg topically
Description: For this test, 10 μl of 12-O-tetradecanoylphorbol-13-acetate (TPA), dissolved in a vehicle of pyridine: water: diethyl ether (20:5:75), was applied to the outside of the right ear of 3-4 week old male CD-1 mice (8 animals per group). The test compounds were dissolved in the same vehicle and 10 μl was applied to the inside of the same ear 30 minutes prior to the application of TPA. Ear punches (6 mm) were removed at 6 hours after TPA application, weighed and assayed for myeloperoxidase (MPO) activity as described in the following reference: P. P. Bradley, D. A. Priebat, R. D. Christensen and G. Rothstein, J. Invest. Dermatology 78, 206-209 (1982). The wet weight of the ear biopsy punches is a measure of the ear edema and the level of MPO activity in the ear punches is an indicator of neutrophil infiltration. The data are expressed as percent inhibition of drug-treatedanimals relative to the control group.

[6] = system: carrageenan-induced paw edema; test: Rat Carrageenan Paw Edema; format: in vivo, Lewis rats; conditions: 30 mg/kg ip, measured at 2 hours after carrageenan injection
Description: Representative compounds of the invention were tested in the rat carrageenan-induced paw edema test to determine their ability to inhibit this acute inflammatory response. Test compounds were administered intraperitoneally or orally to groups of seven Lewis rats (~200 gm) 1 hr prior to carrageenan administration. The test compounds were dissolved in dimethyl sulfoxide for intraperitoneal administration and dissolved or suspended in Labrafil […] for oral administration. At 0 hour, 0.1 mL of 1% carrageenan dissolved in pyrogen free saline was injected subplantarly into the right hind paw to elicit the inflammatory response. The volume (in mL) of the right hind paw was measured by immersion of the paw to the level of the lateral malleolus in an aqueous plethysmometer immediately prior to the injection of carrageenan and then at 1, 2 and 4 hr after carrageenan injection. The paw edema was calculated by subtracting the zero time reading from the readings taken after injection. The percent change of the edema volume from the vehicle treated control was calculated to determine the activity of the test compound. Statistical analysis of the mean paw edema values of the control versus the treated groups was performed using Student's t-test.

IC50 [1] [µM] | Structure (SMILES) | % Inhib of Croton Oil Mouse Ear Edema (1 mg) [2] [%] | inhibition in vivo at 0.3 mg [4] [%] | % Inhib of myeloperoxidase in the TPA mouse ear test [5] [%] | other results
 | CCCCCCCCCCCCCCCCCCOc1cc(OC(=O)C23CC4CC(CC(C4)C2)C3)cc(C(=O)O)c1 [Example 13, 3-(Octadecyloxy)-5-[(tricyclo[3.3.1./3,7/]dec-1-ylcarbonyl)oxy]benzoic acid] | 81 |  |  | inhibition at 5 µM ([1]; 5 μM, read-out: % Inhib of HSF-PLA2): 86%
1.4 | CCCCCCCCCCCCCCCCCCOc1cc(OCCCOc2ccccc2)cc(C(=O)O)c1 [Example 17, 3-(Octadecyloxy)-5-(3-phenoxypropoxy)benzoic acid] | 81 |  |  | 
1.1 | CCCCCCCCCCCCCCCCCCOc1cc(OCCCCCCc2cccc(O)c2O)cc(C(=O)O)c1 [Example 19, 3-[[6-(2,3-Dihydroxyphenyl)hexyl]oxy]-5-(octadecyloxy) benzoic acid] | 76 | 55 | 94 | inhibition of myeloperoxidase (acetic acid-induced colitis) [3]: 56±17%
 | CCCCCCCCCCCCCCCCCCOc1cc(OCCCOc2ccc(O)cc2)cc(C(=O)O)c1 [Example 31, 3-[3-(4-Hydroxyphenoxy)propoxy]-5-(octadecyloxy) benzoic acid] | 84 | 58 | 70 | inhibition of the edema (rat carrageenan paw edema) [6]: 55%; inhibition at 1 µM ([1]; 1 μM, read-out: % Inhib of HSF-PLA2): 37%
8.8 | CCCCCCCCCCOc1cc(OCCCOc2ccc(O)cc2)cc(C(=O)O)c1 [Example 40, 3-(Decyloxy)-5-[3-(4-hydroxyphenoxy)propoxy]benzoic acid] |  | 58 | 72 | 
 | CCCCCCCCCCCCCCCCCCOc1cccc(C(=O)O)c1OCCCOc1ccc(O)cc1 [Example 58, 2-[3-(4-Hydroxyphenoxy)propoxy]-3-(octadecyloxy) benzoic acid] |  | 48 | 62 | inhibition at 10 µM ([1]; read-out: % Inhib of HSF-PLA2): 93%
 | CCCCCCCCCCCCCCOc1cc(OCCCCCCc2cccc(O)c2O)cc(C(=O)O)c1 [Example 63, 3-[[6-(2,3-dihydroxyphenyl)hexyl]oxy]-5-(tetradecyloxy)benzoic acid] |  | 61 | 61 | inhibition at 10 µM ([1]; read-out: % Inhib of HSF-PLA2): 88%
 | CCCCCCCCCCOc1cc(OCCCCCCc2cccc(O)c2O)cc(C(=O)O)c1 [Example 68, 3-(Decyloxy)-5-[[6-(2,3-dihydroxyphenyl)hexyl]oxy]benzoic acid] |  | 58 | 89 | inhibition at 20 µM ([1]; 20 μM, read-out: % Inhib of HSF-PLA2): 74%

Structure (SMILES) | IC50 [1] [µM] | % Inhib of Croton Oil Mouse Ear Edema (1 mg) [2] [%] | inhibition in vivo at 0.3 mg [4] [%] | % Inhib of myeloperoxidase in the TPA mouse ear test [5] [%] | other results
CCCCCCCCCCCCCCCCCCOc1cc(OC(=O)C(c2ccccc2)c2ccccc2)cc(C(=O)O)c1 [Example 11, 3-(Octadecyloxy)-5-(2,2-diphenyl-1-oxoethoxy) benzoic acid] | 0.3 | 71 |  |  | 
